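GI50 = concentration required for 50% inhibition of growth. TGI denotes the concentration required for complete inhibition of growth.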
How the values were obtained:
Experiment in all cases: NCI-60 cell line screen, 384-well format
[1] = tested on: SW-620 colon
[2] = tested on: MDA-MB-231 breast
[3] = tested on: HCC-2998 colon
[4] = tested on: IGROV1 ovarian
[5] = tested on: SK-OV-3 ovarian
[6] = tested on: MOLT-4 leukemia
[7] = tested on: NCI-H226 lung
[8] = tested on: PC-3 prostate
[9] = tested on: SNB-19 CNS
[10] = tested on: NCI-H460 NSCLC
[11] = tested on: T-47D breast
[12] = tested on: OVCAR-3 ovarian
[13] = tested on: A549 NSCLC
[14] = tested on: SF-295 CNS
[15] = tested on: 786-0 renal
[16] = tested on: SK-MEL-5 melanoma
[17] = tested on: NCI-H322M lung
[18] = tested on: HCT-116 colon
[19] = tested on: HS 578T breast
[20] = tested on: HT29 colon
[21] = tested on: A498 renal
[22] = tested on: UO-31 renal
[23] = tested on: SNB-75 CNS
[24] = tested on: TK-10 renal
[25] = tested on: OVCAR-4 ovarian
[26] = tested on: MCF7 breast
[27] = tested on: UACC-257 melanoma
[28] = tested on: SK-MEL-28 melanoma
[29] = tested on: KM12 colon
[30] = tested on: K-562 leukemia
[31] = tested on: M14 melanoma
[32] = tested on: SF-539 CNS
[33] = tested on: NCI/ADR-RES ovarian
[34] = tested on: SN12C renal
[35] = tested on: COLO 205 colon
[36] = tested on: NCI-H23 lung
[37] = tested on: OVCAR-5 ovarian
[38] = tested on: RPMI-8226 leukemia
[39] = tested on: EKVX NSCLC
[40] = tested on: MALME-3M melanoma
[41] = tested on: ACHN renal
[42] = tested on: HL-60(TB) leukemia
[43] = tested on: MDA-MB-468 breast
[44] = tested on: HOP-62 NSCLC
[45] = tested on: MDA-MB-435 melanoma
[46] = tested on: NCI-H522 lung
[47] = tested on: HCT-15 colon
[48] = tested on: UACC-62 melanoma
[49] = tested on: HOP-92 NSCLC
[50] = tested on: OVCAR-8 ovarian
[51] = tested on: RXF 393 renal
[52] = tested on: U251 glioblastoma
[53] = tested on: CAKI-1 renal
[54] = tested on: DU-145 prostate
[55] = tested on: LOX IMVI melanoma
[56] = tested on: CCRF-CEM leukemia
[57] = tested on: BT-549 breast
[58] = tested on: SF-268 CNS

In the case of `COC[C@H](NC(=O)c1cnc(C)s1)C(=O)N[C@@H](COC)C(=O)N[C@@H](Cc1ccccc1)C(=O)[C@@]1(C)CO1`, the GI50 [1] is reported as < 10 nM, the TGI [1] is reported as < 10 nM and the GI50 [2] is reported as < 10 nM. The TGI [2] was < 10 nM, the GI50 [3] was < 10 nM and the TGI [3] was 11.2 nM. The GI50 [4] was 15 nM, the TGI [4] was 51.2 nM and the GI50 [5] was < 10 nM. For the same molecule, the TGI [5] was 23 nM, the GI50 [6] was < 10 nM and the TGI [6] was < 10 nM. For the same molecule, the GI50 [7] was < 10 nM, the TGI [7] was < 10 nM and the GI50 [8] was 10.5 nM. The TGI [8] was 24 nM, the GI50 [9] was < 10 nM and the TGI [9] was 16.4 nM. For the same molecule, the GI50 [10] was 23.1 nM, the TGI [10] was 99.6 nM and the GI50 [11] was < 10 nM. The TGI [11] was < 10 nM, the GI50 [12] was < 10 nM and the TGI [12] was < 10 nM. The GI50 [13] was < 10 nM, the TGI [13] was 256 nM and the GI50 [14] was < 10 nM. For the same molecule, the TGI [14] was < 10 nM, the GI50 [15] was < 10 nM and the TGI [15] was 127 nM. For the same molecule, the GI50 [16] was < 10 nM, the TGI [16] was < 10 nM and the GI50 [17] was < 10 nM. For the same molecule, the TGI [17] was 236 nM, the GI50 [18] was < 10 nM and the TGI [18] was < 10 nM. For the same molecule, the GI50 [19] was < 10 nM, the TGI [19] was < 10 nM and the GI50 [20] was < 10 nM. For the same molecule, the TGI [20] was < 10 nM, the GI50 [21] was < 10 nM and the TGI [21] was 10.3 nM. For the same molecule, the GI50 [22] was 17.2 nM, the TGI [22] was 33 nM and the GI50 [23] was < 10 nM. The TGI [23] was < 10 nM, the GI50 [24] was < 10 nM and the TGI [24] was 22.5 nM. The GI50 [25] was 12.3 nM, the TGI [25] was 29.8 nM and the GI50 [26] was < 10 nM. The TGI [26] was 325 nM, the GI50 [27] was < 10 nM and the TGI [27] was 11.7 nM. For the same molecule, the GI50 [28] was < 10 nM, the TGI [28] was 12.8 nM and the GI50 [29] was < 10 nM. For the same molecule, the TGI [29] was < 10 nM, the GI50 [30] was 11 nM and the TGI [30] was 35.4 nM. The GI50 [31] was < 10 nM, the TGI [31] was < 10 nM and the GI50 [32] was < 10 nM. For the same molecule, the TGI [32] was < 10 nM, the GI50 [33] was 1290 nM and the TGI [33] was 2910 nM. For the same molecule, the GI50 [34] was 10.7 nM, the TGI [34] was 30.3 nM and the GI50 [35] was < 10 nM. For the same molecule, the TGI [35] was 1530 nM, the GI50 [36] was < 10 nM and the TGI [36] was < 10 nM. The GI50 [37] was < 10 nM, the TGI [37] was 81.2 nM and the GI50 [38] was < 10 nM. The TGI [38] was < 10 nM, the GI50 [39] was 14.4 nM and the TGI [39] was 77.3 nM. The GI50 [40] was < 10 nM, the TGI [40] was < 10 nM and the GI50 [41] was < 10 nM. For the same molecule, the TGI [41] was 156 nM, the GI50 [42] was 10.7 nM and the TGI [42] was 23 nM. For the same molecule, the GI50 [43] was < 10 nM, the TGI [43] was < 10 nM and the GI50 [44] was < 10 nM. For the same molecule, the TGI [44] was < 10 nM, the GI50 [45] was < 10 nM and the TGI [45] was < 10 nM. The GI50 [46] was < 10 nM, the TGI [46] was < 10 nM and the GI50 [47] was 36.8 nM. For the same molecule, the TGI [47] was 154 nM, the GI50 [48] was < 10 nM and the TGI [48] was < 10 nM. For the same molecule, the GI50 [49] was < 10 nM, the TGI [49] was < 10 nM and the GI50 [50] was < 10 nM. The TGI [50] was 62.2 nM, the GI50 [51] was < 10 nM and the TGI [51] was < 10 nM. For the same molecule, the GI50 [52] was 10.2 nM, the TGI [52] was 25.6 nM and the GI50 [53] was < 10 nM. The TGI [53] was 1790 nM, the GI50 [54] was < 10 nM and the TGI [54] was 223 nM. For the same molecule, the GI50 [55] was < 10 nM, the TGI [55] was 12 nM and the GI50 [56] was < 10 nM. The TGI [56] was < 10 nM, the GI50 [57] was < 10 nM and the TGI [57] was < 10 nM. For the same molecule, the GI50 [58] was < 10 nM and the TGI [58] was < 10 nM.
